smiles,measurement,value
CC(C)CN(C[C@@H](O)[C@H](Cc1ccccc1)NC(=O)[C@@H](NC(=O)CNC(=O)C(C)C)C(C)(C)C)S(=O)(=O)c1ccc2c(c1)OCO2 (stereo in doubt),melting point,205 to 206 °C

# From patent US6562848B1, “Bis-amino acid sulfonamides as HIV protease inhibitors” (Bristol-Myers Squibb Company, priority 2001, dated 2003)
